Reference: ChEMBL document CHEMBL4622844, “Inhibition of bacterial growth and galactosyltransferase activity of WbwC by α, ω-bis(3-alkyl-1H-imidazolium)alkane salts: Effect of varying carbon content” (Bioorg Med Chem, 2020)
Active and inactive are the calls of the source. The calls are words filed in the database; no cut-off is given here.

Experiments:
[1] = molecular target: T1, Beta-1,4-galactosyltransferase 1 (Bos taurus) (UniProt P08037); assay: Inhibition of bovine milk Beta-1,4-galactosyltransferase at 0.5 mM in presence of UDP-[3H]Gal and GlcNAc-beta-Bn after 1 hr by scintillation counting method
T1 sequence (whole entry): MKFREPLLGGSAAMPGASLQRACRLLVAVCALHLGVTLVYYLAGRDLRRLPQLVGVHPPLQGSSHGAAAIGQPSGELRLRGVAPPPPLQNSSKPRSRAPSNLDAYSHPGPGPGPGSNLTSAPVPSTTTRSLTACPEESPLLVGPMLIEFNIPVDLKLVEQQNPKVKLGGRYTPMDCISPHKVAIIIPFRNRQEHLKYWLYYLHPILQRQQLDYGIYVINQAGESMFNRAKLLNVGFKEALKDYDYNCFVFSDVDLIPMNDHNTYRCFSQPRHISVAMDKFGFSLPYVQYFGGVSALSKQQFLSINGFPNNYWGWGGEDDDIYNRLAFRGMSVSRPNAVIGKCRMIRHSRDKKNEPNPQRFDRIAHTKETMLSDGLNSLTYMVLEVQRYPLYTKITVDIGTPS

[2] = Inhibition of recombinant Escherichia coli O104:H4 Beta-1,3-galactosyltransferase WbwC expressed in Escherichia coli BL21 in presence of UDP-[3H]Gal and GalNAC-PO3-PO3-(CH2)11-O-phenyl after 1 hr by scintillation counting method
[3] = test system: Escherichia coli; assay: Inhibition of recombinant Escherichia coli O104:H4 Beta-1,3-galactosyltransferase WbwC expressed in Escherichia coli BL21 at 0.5 mM in presence of UDP-[3H]Gal and GalNAC-PO3-PO3-(CH2)11-O-phenyl after 1 hr by scintillation counting method relative to control
[4] = test system: AD293; assay: Growth inhibition of human AD293 cells at 50 uM after 24 hrs by MTT assay; assay type: cell-based; conditions: ad293, 24 h
[5] = test system: OC-3-VGH; assay: Growth inhibition of human OC-3-VGH cells at 50 uM after 24 hrs by MTT assay; assay type: cell-based
[6] = test system: A549; assay: Growth inhibition of human A549 cells at 50 uM after 24 hrs by MTT assay; assay type: cell-based; conditions: a549, 24 h
[7] = test system: Staphylococcus epidermidis; assay: Antimicrobial activity against Staphylococcus epidermidis assessed as inhibition of colony formation at 10 uM preincubated for 4 hrs and measured after overnight incubation by CFU assay; assay type: functional
[8] = test system: Bacillus subtilis; assay: Antimicrobial activity against Bacillus subtilis assessed as inhibition of colony formation at 5 uM preincubated for 4 hrs and measured after overnight incubation by CFU assay; assay type: functional
[9] = test system: Escherichia coli; assay: Antimicrobial activity against Escherichia coli BL21 assessed as inhibition of colony formation at 10 uM preincubated for 4 hrs and measured after overnight incubation by CFU assay; assay type: functional
[10] = test system: Pseudomonas aeruginosa; assay: Antimicrobial activity against Pseudomonas aeruginosa PAO1 assessed as inhibition of colony formation at 10 uM preincubated for 4 hrs and measured after overnight incubation by CFU assay; assay type: functional
[11] = test system: Pseudomonas aeruginosa; assay: Antimicrobial activity against Pseudomonas aeruginosa PAO1 assessed as inhibition of colony formation at 25 uM preincubated for 4 hrs and measured after overnight incubation by CFU assay; assay type: functional
[12] = test system: Bacillus subtilis; assay: Antimicrobial activity against Bacillus subtilis assessed as inhibition of colony formation at 25 uM preincubated for 4 hrs and measured after overnight incubation by CFU assay; assay type: functional
[13] = test system: Escherichia coli; assay: Antimicrobial activity against Escherichia coli BL21 assessed as inhibition of colony formation at 25 uM preincubated for 4 hrs and measured after overnight incubation by CFU assay; assay type: functional
[14] = test system: Staphylococcus epidermidis; assay: Antimicrobial activity against Staphylococcus epidermidis assessed as inhibition of colony formation at 25 uM preincubated for 4 hrs and measured after overnight incubation by CFU assay; assay type: functional
[15] = test system: Pseudomonas aeruginosa; assay: Antimicrobial activity against Pseudomonas aeruginosa PAO1 assessed as inhibition of colony formation at 5 uM preincubated for 4 hrs and measured after overnight incubation by CFU assay; assay type: functional
[16] = test system: Bacillus subtilis; assay: Antimicrobial activity against Bacillus subtilis assessed as inhibition of colony formation at 10 uM preincubated for 4 hrs and measured after overnight incubation by CFU assay; assay type: functional
[17] = test system: Staphylococcus epidermidis; assay: Antimicrobial activity against Staphylococcus epidermidis assessed as inhibition of colony formation at 5 uM preincubated for 4 hrs and measured after overnight incubation by CFU assay; assay type: functional
[18] = test system: Escherichia coli; assay: Antimicrobial activity against Escherichia coli BL21 assessed as inhibition of colony formation at 5 uM preincubated for 4 hrs and measured after overnight incubation by CFU assay; assay type: functional
[19] = Growth inhibition of human OC-3-VGH cells at 0.5 mM after 24 hrs by MTT assay; assay type: cell-based; conditions: read-out: GI
[20] = test system: PC-3; assay: Growth inhibition of human PC3 cells after 24 hrs by MTT assay; assay type: cell-based; conditions: pc-3, 24 h
[21] = test system: A549; assay: Growth inhibition of human A549 cells after 24 hrs by MTT assay; assay type: cell-based; conditions: a549, 24 h
[22] = test system: AD293; assay: Growth inhibition of human AD293 cells after 24 hrs by MTT assay; assay type: cell-based; conditions: ad293, 24 h
[23] = test system: A549; assay: Growth inhibition of human A549 cells at 0.5 mM after 24 hrs by MTT assay; assay type: cell-based; conditions: a549, 24 h, 500 µM
[24] = test system: PC-3; assay: Growth inhibition of human PC3 cells at 0.5 mM after 24 hrs by MTT assay; assay type: cell-based; conditions: pc-3, 24 h, 500 µM
[25] = test system: AD293; assay: Growth inhibition of human AD293 cells at 0.5 mM after 24 hrs by MTT assay; assay type: cell-based; conditions: ad293, 24 h, 500 µM
[26] = test system: OC-3-VGH; assay: Growth inhibition of human OC-3-VGH cells after 24 hrs by MTT assay; assay type: cell-based
[27] = test system: Pseudomonas aeruginosa; assay: Antimicrobial activity against Pseudomonas aeruginosa PAO1 assessed as inhibition of colony formation at 50 uM preincubated for 4 hrs and measured after overnight incubation by CFU assay; assay type: functional

For `CCCCCC[n+]1ccn(CCCCCCCCCCCCCCCCn2cc[n+](CCCCCC)c2)c1`, which inhibition [1] is on record?
The inhibition was “Active”.

And the IC50 [2]?
The IC50 was 48 µM.

And the inhibition [3]?
The inhibition was 88%.

With `CCCCCCCCCC[n+]1ccn(CCCCCCn2cc[n+](CCCCCCCCCC)c2)c1` as the molecule, how does the inhibition [1] read?
The inhibition was “Active”.

What about the IC50 [2] of the same molecule?
Its IC50 is 263 µM.

What about the inhibition [3] of the same molecule?
Its inhibition is 92%.

What does the source list for `CCCCCCCCCC[n+]1ccn(CCCCCCCCCCn2cc[n+](CCCCCCCCCC)c2)c1`?
IC50 [2]: 152 µM; inhibition [3]: 98%

With `CCCCCCCCCCCC[n+]1ccn(CCCCCCn2cc[n+](CCCCCCCCCCCC)c2)c1` as the molecule, how does the inhibition [1] read?
Its inhibition is “Active”.

What about the IC50 [2] of the same molecule?
Its IC50 is 43 µM.

And the inhibition [3]?
Its inhibition is 90%.

For `CCCCCCC[n+]1ccn(CCCCCCCCCCCCCCCCn2cc[n+](CCCCCCC)c2)c1`, which IC50 [2] is on record?
The IC50 was 11 µM.

What about the inhibition [3] of the same molecule?
The inhibition was 95%.

For `CCCCCCC[n+]1ccn(CCCCCCn2cc[n+](CCCCCCC)c2)c1`, which inhibition [3] is on record?
The inhibition was 16%.

Which inhibition [3] does the source give for `C[n+]1ccn(CCCCCCCCCCCCCCCCn2cc[n+](C)c2)c1` here?
The inhibition was under 1%.

Which inhibition [3] does the source give for `CCCCCCC[n+]1ccn(CCCCCCCCCCn2cc[n+](CCCCCCC)c2)c1` here?
The inhibition was under 1%.

What does the source list for `c1cn(CCCCCCCCCCCCCCCCn2ccnc2)cn1`?
growth inhibition (GI) [4]: Non-Toxic; growth inhibition (GI) [5]: Non-Toxic; growth inhibition (GI) [6]: Non-Toxic

Which “growth inhibition (GI)” value [4] does the source give for `c1cn(CCCCCCCCCCCCCCCCCCn2ccnc2)cn1` here?
Its value is “Non-Toxic”.

And the “growth inhibition (GI)” value [5]?
Its value is “Non-Toxic”.

And the “growth inhibition (GI)” value [6]?
Its value is “Non-Toxic”.

With `CCCCCCCC[n+]1ccn(CCCCCCCCCCn2cc[n+](CCCCCCCC)c2)c1` as the molecule, how does the inhibition at 10 µM [7] read?
The inhibition at 10 µM was 100%.

And the inhibition at 5 µM [8]?
Its inhibition at 5 µM is 100%.

And the inhibition at 10 µM [9]?
The inhibition at 10 µM was 100%.

What about the inhibition at 10 µM [10] of the same molecule?
The inhibition at 10 µM was 100%.

What about the inhibition at 25 µM [11] of the same molecule?
Its inhibition at 25 µM is 100%.

What about the IC50 [2] of the same molecule?
Its IC50 is 123 µM.

And the inhibition at 25 µM [12]?
The inhibition at 25 µM was 100%.

What about the inhibition at 25 µM [13] of the same molecule?
The inhibition at 25 µM was 100%.

And the inhibition at 25 µM [14]?
The inhibition at 25 µM was 100%.

What about the inhibition at 5 µM [15] of the same molecule?
Its inhibition at 5 µM is 96%.

And the inhibition at 10 µM [16]?
The inhibition at 10 µM was 100%.

What about the inhibition at 5 µM [17] of the same molecule?
The inhibition at 5 µM was 100%.

And the inhibition at 5 µM [18]?
Its inhibition at 5 µM is 100%.

And the inhibition [3]?
The inhibition was 64%.

For `C[n+]1ccn(CCCCCCCCCCCCCCn2cc[n+](C)c2)c1`, which inhibition at 10 µM [7] is on record?
The inhibition at 10 µM was 0%.

And the inhibition at 5 µM [8]?
The inhibition at 5 µM was 8%.

And the inhibition at 10 µM [9]?
Its inhibition at 10 µM is 32%.

And the inhibition at 10 µM [10]?
Its inhibition at 10 µM is 4%.

What about the inhibition at 25 µM [11] of the same molecule?
The inhibition at 25 µM was 22%.

What about the inhibition at 25 µM [12] of the same molecule?
The inhibition at 25 µM was 51%.

And the inhibition at 25 µM [13]?
The inhibition at 25 µM was 51%.

And the inhibition at 25 µM [14]?
Its inhibition at 25 µM is 0%.

And the inhibition at 5 µM [15]?
Its inhibition at 5 µM is 0%.

And the inhibition at 10 µM [16]?
The inhibition at 10 µM was 20%.

What about the inhibition at 5 µM [17] of the same molecule?
Its inhibition at 5 µM is 0%.

And the inhibition at 5 µM [18]?
Its inhibition at 5 µM is 0%.

And the inhibition [3]?
Its inhibition is 10%.

With `CCCCCCCCC[n+]1ccn(CCCCCCn2cc[n+](CCCCCCCCC)c2)c1` as the molecule, how does the inhibition [3] read?
Its inhibition is under 10%.

What does the source list for `C[n+]1ccn(CCCCCCCCCCCCCCCCCCn2cc[n+](C)c2)c1.[Cl-].[Cl-]`?
inhibition at 24 h, 500 µM [19]: 80%; growth inhibition (GI) [20]: Toxic; growth inhibition (GI) [21]: Toxic; growth inhibition (GI) [22]: Toxic; growth inhibition (GI) [23]: Toxic; growth inhibition (GI) [24]: Toxic; growth inhibition (GI) [25]: Toxic; IC50 [26]: 5 to 12 µM; inhibition [3]: < 1%

Which results are given for `CCCCCCCCC[n+]1ccn(CCCCCCCCCCCCCCCCn2cc[n+](CCCCCCCCC)c2)c1`?
IC50 [2]: 35 µM; inhibition [3]: 93%

Which inhibition [3] does the source give for `CCCCCC[n+]1ccn(CCCCCCn2cc[n+](CCCCCC)c2)c1` here?
Its inhibition is 6%.

With `C[n+]1ccn(CCCCCCCCCCCCCCCCCCCCCCn2cc[n+](C)c2)c1` as the molecule, how does the inhibition at 50 µM [27] read?
The inhibition at 50 µM was 100%.

What about the inhibition at 25 µM [11] of the same molecule?
The inhibition at 25 µM was over 95%.

What about the IC50 [2] of the same molecule?
The IC50 was 159 µM.

What about the inhibition [3] of the same molecule?
The inhibition was 91%.
